These are literature values, as cited in article PMC11187573, “Identification of SARS-CoV-2 Mpro inhibitors through deep reinforcement learning for de novo drug design and computational chemistry approaches” (RSC Medicinal Chemistry, 2024).

SMILES strings stand for the structures.

Series [1] deals with SARS, SARS-CoV-2 and MERS Mpro. The settings on record: Origin ChEMBL; ref ChEMBL; cited from earlier work.
Another series concerns Mpro. The settings on record: ML dataset, Origin COVID_Moonshot; ref COVID Moonshot; cited from earlier work.

As for `O=c1cc(-c2ccc(O)cc2)oc2cc(O)cc(O)c12` [CHEMBL28, Oc(cc1)ccc1C(Oc1c2c(O)cc(O)c1)=CC2=O], the IC50 in series [1] was 3020 nM.
Take `CC(Cc1ccc(O)c(O)c1)C(C)Cc1ccc(O)c(O)c1` (stereo not shown) [CHEMBL52, CC(Cc(cc1)cc(O)c1O)C(C)Cc(cc1)cc(O)c1O]: the IC50 in series [1] is 2590 nM.
Regarding `Cc1c(OCC(F)(F)F)ccnc1C[S+]([O-])c1nc2ccccc2[nH]1` (stereo not shown) [CHEMBL480, Cc(c(C[S+](c1nc(cccc2)c2[nH]1)[O-])ncc1)c1OCC(F)(F)F], in series [1], the IC50 is 995 nM.
As for `O=c1cc(-c2ccccc2)oc2cc(O)c(O)c(O)c12` [CHEMBL8260, Oc(cc(c1c2O)OC(c3ccccc3)=CC1=O)c2O], in series [1], the 50% inhibitory concentration (IC50) was 20 nM.
`CNC(=O)ON(C(C)=O)C(=O)NC` [CHEMBL9116, CC(N(C(NC)=O)OC(NC)=O)=O]: the IC50 in series [1] was 1330 nM.
For the compound `Cc1ccc(S(=O)(=O)N[C@@H](Cc2ccccc2)C(=O)CCl)cc1` [CHEMBL60718, Cc(cc1)ccc1S(N[C@@H](Cc1ccccc1)C(CCl)=O)(=O)=O], the half-inhibitory concentration (IC50) in series [1] was 1370 nM.
For `O=c1c(O)cccc2cc(O)c(O)c(O)c12` [CHEMBL66953, Oc(cc(C=CC=C(C1=O)O)c1c1O)c1O], the IC50 in series [1] is 4580 nM.
Regarding `Nc1nc(S)c2ncn(C3OC(CO)C(O)C3O)c2n1` (stereo not shown) [CHEMBL119171, Nc(nc1S)nc2c1ncn2C(C1O)OC(CO)C1O], the IC50 in series [1] is 1080 nM.
As to `CN(C)C(=S)SSC(=S)N(C)C` [CHEMBL120563, CN(C)C(SSC(N(C)C)=S)=S], in series [1], the IC50 was 50 nM.
Consider `O=C(O)CCCCCCCCCCCCCCc1ccc(I)cc1` [CHEMBL128251], for which the IC50 in series [1] is 2250 nM.
As for `C=CC(=O)c1ccc2ccccc2c1` [CHEMBL154580, C=CC(c1cc2ccccc2cc1)=O], the IC50 in series [1] is 1240 nM.
As to `C[N+]1(C)CCC(OC(=O)C(c2ccccc2)c2ccccc2)CC1` [CHEMBL168067, C[N+](C)(CC1)CCC1OC(C(c1ccccc1)c1ccccc1)=O], the IC50 in series [1] is 2360 nM.
In the case of `Cc1coc2c1C(=O)C(=O)c1c-2ccc2c1CCCC2(C)C` [CHEMBL187266, CC(C)(CCC1)c(cc2)c1c(C1=O)c2-c(occ2C)c2C1=O], the IC50 in series [1] is 1600 nM.
On to `O=C1C(=O)N(Cc2cc3ccccc3s2)c2ccc(F)cc21` [CHEMBL187598, O=C(c(cc(cc1)F)c1N1Cc2cc(cccc3)c3s2)C1=O], for which the IC50 in series [1] was 4820 nM.
Turning to `O=C1C(=O)N(Cc2cc3ccccc3s2)c2c1cccc2[N+](=O)[O-]` [CHEMBL187717, [O-][N+](c(cccc1C2=O)c1N(Cc1cc(cccc3)c3s1)C2=O)=O], the concentration for half-maximal inhibition (IC50) in series [1] was 2000 nM.
For `O=C1C(=O)N(Cc2cc3ccccc3s2)c2ccc(I)cc21` [CHEMBL190743, O=C(c(cc(cc1)I)c1N1Cc2cc(cccc3)c3s2)C1=O], the concentration for half-maximal inhibition (IC50) in series [1] is 950 nM.
Regarding `O=C1C(Cl)=C(Cl)C(=O)C(Cl)=C1Cl` [CHEMBL192627, O=C(C(Cl)=C(C1=O)Cl)C(Cl)=C1Cl], the IC50 in series [1] was 20 nM.
Consider `O=C(CSc1nccc(-c2csc(-c3ccccc3)n2)n1)Nc1cc(Cl)cc(Cl)c1` [CHEMBL208732, O=C(CSc1nc(-c2csc(-c3ccccc3)n2)ccn1)Nc1cc(Cl)cc(Cl)c1], for which, in series [1], the IC50 is 3000 nM.
For the compound `O=C(Oc1ccc(S(=O)(=O)c2ccc(OC(=O)C(Cl)=C(Cl)Cl)cc2)cc1)C(Cl)=C(Cl)Cl` [CHEMBL212454, O=C(C(Cl)=C(Cl)Cl)Oc(cc1)ccc1S(c(cc1)ccc1OC(C(Cl)=C(Cl)Cl)=O)(=O)=O], in series [1], the 50% inhibitory concentration (IC50) is 900 nM.
For `Cc1cccc2c3c(ccc12)C1=C(C(=O)C3=O)[C@@H](C)CO1` [CHEMBL227075, C[C@@H]1C(C(C(c2c3ccc4c(C)cccc24)=O)=O)=C3OC1], the IC50 in series [1] is 3050 nM.
With `CC(C)(C)OC(=O)NCCc1nnc(S(=O)(=O)Cc2ccc(Cl)cc2Cl)o1` [CHEMBL259018, CC(C)(C)OC(NCCc(o1)nnc1S(Cc(ccc(Cl)c1)c1Cl)(=O)=O)=O], the IC50 in series [1] is 4220 nM.
In the case of `CC(C)(C)c1ccc(S(=O)(=O)/C=C/C#N)cc1` [CHEMBL270299, CC(C)(C)c(cc1)ccc1S(/C=C/C#N)(=O)=O], the IC50 in series [1] is 840 nM.
Consider `Sc1nnc(Nc2ccccc2)s1` [CHEMBL289356, Sc1nnc(Nc2ccccc2)s1], for which, in series [1], the IC50 was 390 nM.
As for `O=C(/C=C/c1ccc(O)c(O)c1)O[C@H](Cc1ccc(O)c(O)c1)C(=O)O` [CHEMBL324842, OC([C@@H](Cc(cc1)cc(O)c1O)OC(/C=C/c(cc1)cc(O)c1O)=O)=O], the IC50 in series [1] is 3860 nM.
Regarding `C[n+]1c2cc(N)ccc2cc2ccc(N)cc21` [CHEMBL354349, C[n+](c1c2)c(cc(cc3)N)c3cc1ccc2N], the IC50 in series [1] is 3460 nM.
Take `NC(=O)c1ccc2c(c1)C(=O)C(=O)N2Cc1ccc2ccccc2c1` [CHEMBL358279, NC(c(cc1)cc(C2=O)c1N(Cc1cc3ccccc3cc1)C2=O)=O]: in series [1], the IC50 is 245 nM.
Regarding `Cc1coc2c1C(=O)C(=O)c1c-2ccc2c(C)cccc12` [CHEMBL363535, Cc1coc(-c(ccc2c(C)cccc22)c2C2=O)c1C2=O], in series [1], the 50% inhibitory concentration (IC50) was 700 nM.
In the case of `O=C1C(=O)N(Cc2cc3ccccc3s2)c2c(Br)cccc21` [CHEMBL365134, O=C(c1cccc(Br)c1N1Cc2cc(cccc3)c3s2)C1=O], the IC50 in series [1] is 980 nM.
`O=C1C(=O)N(Cc2ccc3ccccc3c2)c2ccc(I)cc21` [CHEMBL383725, O=C(c(cc(cc1)I)c1N1Cc2cc3ccccc3cc2)C1=O]: the IC50 in series [1] is 1100 nM.
Consider `O=C1C2CC=CCC2C(=O)N1SC(Cl)(Cl)Cl` (stereo not shown) [CHEMBL388676, O=C(C(CC=CC1)C1C1=O)N1SC(Cl)(Cl)Cl], for which the IC50 in series [1] is 670 nM.
With `Cc1ccc(S(=O)(=O)/C=C/C#N)cc1` [CHEMBL403183, Cc(cc1)ccc1S(/C=C/C#N)(=O)=O], the 50% inhibitory concentration (IC50) in series [1] was 820 nM.
`Oc1ccc2ccccc2c1SSc1c(O)ccc2ccccc12` [CHEMBL472940, Oc(ccc1ccccc11)c1SSc(c1ccccc1cc1)c1O]: the IC50 in series [1] was 510 nM.
Consider `CN(C)C(=O)C[C@@]1(C(=O)Nc2cncc3ccccc23)CCOc2ccc(Cl)cc21` [MAT-POS-f9802937-4], for which the IC50 in the series on Mpro was 20500 nM.
For `CCOc1c(Cl)cccc1CC(=O)Nc1cncc2ccccc12` [MAT-POS-fce787c2-1], the IC50 with Mpro is 6960 nM.
Consider `O=C(Cc1cc(Cl)cc(Cl)c1)Nc1cncc2ccccc12` [MAT-POS-fce787c2-2], for which, in the series on Mpro, the IC50 is 1370 nM.
As to `O=C(Nc1cncc2ccccc12)C(O)c1ccc(Cl)c(Cl)c1` (stereo not shown) [MAT-POS-fce787c2-4], the 50% inhibitory concentration (IC50) in the series with Mpro is 2010 nM.
With `O=C(Nc1cncc2ccccc12)C(CO)c1ccc(Cl)c(Cl)c1` (stereo not shown) [MAT-POS-fce787c2-11], in the series on Mpro, the IC50 was 19300 nM.
On to `O=C(Cc1cc(Cl)cc(Cc2ccn[nH]2)c1)Nc1cncc2ccccc12` [PET-UNK-372a2f82-1], for which, in the series on Mpro, the IC50 was 7220 nM.
On to `O=C(Cc1cncc2ccccc12)Nc1cccc(Cl)c1` [PET-UNK-8922bd3c-1], for which the IC50 in the series on Mpro was 6840 nM.
In the case of `O=C(Cc1cc(Cl)ccc1Cl)Nc1cncc2ccccc12` [PET-UNK-dd44aeb6-2], the IC50 in the series on Mpro is 1020 nM.
Take `O=C(Cc1cc(Cl)cc(-c2nnc[nH]2)c1)Nc1cncc2ccccc12` [RAL-THA-1d44ff04-8]: the IC50 in the series with Mpro is 5300 nM.
On to `O=C(Cc1ccc(Cl)cc1)Nc1cncc2ccccc12` [RAL-THA-2d450e86-2], for which, in the series with Mpro, the IC50 was 23700 nM.
With `Cc1ccc(CC(=O)Nc2cncc3ccccc23)cc1` [RAL-THA-2d450e86-3], the IC50 with Mpro is 58400 nM.
Regarding `COc1ccc(CC(=O)Nc2cncc3ccccc23)cc1` [RAL-THA-2d450e86-4], in the series with Mpro, the IC50 was 72500 nM.
As to `Cc1ccc(CC(=O)Nc2cncc3ccccc23)cc1Cl` [RAL-THA-2d450e86-8], the IC50 with Mpro is 1090 nM.
As for `O=C(Cc1ccc(Cl)c(F)c1)Nc1cncc2ccccc12` [RAL-THA-2d450e86-9], the IC50 in the series with Mpro was 2030 nM.
On to `COc1cccc(CC(=O)Nc2cncc3ccccc23)c1` [RAL-THA-2d450e86-11], for which, in the series on Mpro, the 50% inhibitory concentration (IC50) is 30500 nM.
Turning to `O=C(Cc1cc(F)cc(Cl)c1)Nc1cncc2ccccc12` [RAL-THA-2d450e86-14], the IC50 in the series on Mpro was 383 nM.
For `O=C(Cc1cccc(Cl)c1F)Nc1cncc2ccccc12` [RAL-THA-2d450e86-19], the IC50 with Mpro is 23600 nM.
Consider `O=C(Cc1cccc(C(F)(F)F)c1)Nc1cncc2ccccc12` [RAL-THA-2d450e86-31], for which the IC50 in the series with Mpro was 6940 nM.
Regarding `O=C(Cc1ccc(C(F)(F)F)cc1)Nc1cncc2ccccc12` [RAL-THA-2d450e86-32], the IC50 in the series on Mpro is 24800 nM.
In the case of `O=C(Cc1ccncc1Cl)Nc1cncc2ccccc12` [RAL-THA-2d450e86-34], the IC50 in the series on Mpro was 52600 nM.
On to `Cc1ccccc1CC(=O)Nc1cncc2ccccc12` [RAL-THA-2d450e86-38], for which, in the series with Mpro, the IC50 is 29500 nM.
With `COc1ccccc1CC(=O)Nc1cncc2ccccc12` [RAL-THA-2d450e86-39], the IC50 with Mpro was 35000 nM.
Turning to `COCCN1CCC(C(=O)Nc2cncc3ccccc23)c2cc(Cl)ccc21` (stereo not shown) [RAL-THA-4aa06b95-7], the IC50 in the series on Mpro was 564 nM.
Regarding `CNC(=O)c1cc(Cl)cc(CC(=O)Nc2cnccc2C)c1` [RAL-THA-6b94ceba-7], the IC50 in the series on Mpro is 47700 nM.
For the compound `Cc1ccncc1NC(=O)Cc1cc(Cl)cc(CNS(C)(=O)=O)c1` [RAL-THA-6b94ceba-12], the IC50 with Mpro is 24400 nM.
For the compound `Cc1ccncc1NC(=O)Cc1cc(Cl)cc(S(N)(=O)=O)c1` [RAL-THA-6b94ceba-13], the IC50 in the series on Mpro is 13900 nM.
`O=C(Nc1cncc2ccccc12)C1CCN(Cc2ccccc2)c2ccc(Cl)cc21` (stereo not shown) [RAL-THA-8416115c-1]: the IC50 in the series with Mpro was 1060 nM.
Consider `O=C(Nc1cncc2ccccc12)C1CCN(Cc2ccn[nH]2)c2ccc(Cl)cc21` (stereo not shown) [RAL-THA-8416115c-6], for which the IC50 in the series with Mpro was 803 nM.
With `CN(C)C(=O)CN1CCC(C(=O)Nc2cncc3ccccc23)c2cc(Cl)ccc21` (stereo not shown) [RAL-THA-8416115c-9], in the series on Mpro, the IC50 is 2540 nM.
Consider `CNC(=O)Nc1ccc(N(Cc2ccsc2)C(=O)Cn2nnc3ccccc32)cc1` [ROB-IMP-e811baff-1], for which the 50% inhibitory concentration (IC50) in the series with Mpro is 8370 nM.
Take `Cc1ccncc1NC(=O)Cc1cc(C#N)cc(OC2CC(=O)N2)c1` (stereo not shown) [TRY-UNI-2eddb1ff-6]: in the series with Mpro, the IC50 is 10100 nM.
For `O=C(Cc1ccc(Cl)c(Cl)c1)Nc1cncc2cnccc12` [VLA-UNK-82501c2c-1], the IC50 in the series with Mpro is 1850 nM.
`O=C(Cc1ccc(Cl)c(Cl)c1)Nc1cncc2ccncc12` [VLA-UNK-82501c2c-2]: the IC50 with Mpro was 1790 nM.
For the compound `N#Cc1cc(Cl)cc(NC(=O)Nc2cccnc2)c1` [WAR-XCH-eb7b662f-2], the IC50 in the series on Mpro is 99000 nM.
Consider `Cc1ccncc1NC(=O)Cc1cc(Cl)cc(NS(C)(=O)=O)c1` [WIL-MOD-03b86a88-5], for which, in the series on Mpro, the IC50 was 21800 nM.
